Read-outs that look alike come from different tables or passages of the source.
Columns and labels:
[1] = biological target: T1, M3 receptor (Cavia porcellus, UniProt H0W1Z3); test: Carbachol-induced contraction of the isolated Guinea pig ileum; conditions: reference antagonist
T1 construct: from tissue; host or cells: isolated guinea pig ileum

[2] = biological target: Ca^2+ Channel Verapamil Site; test: In vitro radioligand binding assay, Ca2+ channel verapamil site
[3] = biological target: T2, M5 (Homo sapiens, UniProt P08912); test: In vitro radioligand binding assay, M5
T2 sequence (P08912 1-532): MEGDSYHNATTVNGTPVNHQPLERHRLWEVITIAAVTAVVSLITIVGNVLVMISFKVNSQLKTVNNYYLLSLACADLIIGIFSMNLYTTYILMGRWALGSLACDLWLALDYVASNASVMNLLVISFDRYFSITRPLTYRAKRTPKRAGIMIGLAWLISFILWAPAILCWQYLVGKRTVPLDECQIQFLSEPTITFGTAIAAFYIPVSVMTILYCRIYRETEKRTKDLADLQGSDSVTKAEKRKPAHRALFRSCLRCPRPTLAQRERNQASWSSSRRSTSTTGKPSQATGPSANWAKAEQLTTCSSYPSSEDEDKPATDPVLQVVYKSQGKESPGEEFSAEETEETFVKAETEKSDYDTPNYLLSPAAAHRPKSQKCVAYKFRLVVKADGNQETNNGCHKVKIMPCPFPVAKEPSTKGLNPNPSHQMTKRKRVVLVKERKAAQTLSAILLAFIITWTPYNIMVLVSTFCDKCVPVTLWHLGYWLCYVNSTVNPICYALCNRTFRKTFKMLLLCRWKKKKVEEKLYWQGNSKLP

[4] = biological target: Na^+ Channel Site 2; test: In vitro radioligand binding assay, Na+ channel site 2
[5] = biological target: 5-HT1B (Homo sapiens, UniProt P28222); test: In vitro radioligand binding assay, 5-HT1B
Chain of 5-HT1B (P28222 whole entry, species assumed): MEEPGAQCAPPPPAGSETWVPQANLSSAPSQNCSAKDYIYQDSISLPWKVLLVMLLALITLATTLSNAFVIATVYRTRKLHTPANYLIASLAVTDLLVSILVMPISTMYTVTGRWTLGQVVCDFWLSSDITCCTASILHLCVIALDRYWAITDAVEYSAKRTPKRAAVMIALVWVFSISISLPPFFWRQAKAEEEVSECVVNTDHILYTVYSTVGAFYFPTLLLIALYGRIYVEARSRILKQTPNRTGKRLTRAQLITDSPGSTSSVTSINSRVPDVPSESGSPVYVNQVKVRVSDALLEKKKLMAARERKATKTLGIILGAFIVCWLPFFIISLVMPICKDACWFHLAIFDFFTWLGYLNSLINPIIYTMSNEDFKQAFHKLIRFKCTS

[6] = tested on: rats; test: Formalin paw test in the rat (late phase), flinches counted; format: in vivo
Experimental: Rats were given an intraplantar injection of 5% formalin (50 μl) into the posterior left paw. […] The number of flinches was counted for 15 minutes, beginning 20 minutes after injection of formalin. Eight rats were studied per group. The test was performed blind. […] Data were analyzed by comparing treated groups with vehicle control using unpaired Mann-Whitney U tests.

[7] = tested on: rats; test: Formalin test, second test with Automated Nociception Analyzer; format: in vivo, rat; conditions: automated detection; for Number of Flinches, Acute Phase (Mean ± SEM): 0-10 minutes after formalin; for Number of Flinches, Late Phase (Mean ± SEM): 10-60 minutes after formalin
Experimental: In a second test, flinching behaviors were measured for 90 minutes after formalin injection using an automated detection system. […] This device used a magnetic detection system to measure paw movements, called “flinches”. Small metal bands were attached to the left hind paw of rats just before placement into individual circular test chambers 30 minutes prior to formalin injection. […] In addition to duloxetine, morphine (6 mg/kg, subcutaneously) was used as a comparator substance. Animals were treated with morphine 30 minutes prior to the formalin injection. To initiate the experiment, the rats were injected with formalin subcutaneously on the dorsal surface of the left hind paw and placed in the test chambers. The instrument subsequently recorded rapid foot movements counted in one minute epochs.

[8] = biological target: T3, Norepinephrine (NE) uptake (Rattus norvegicus, UniProt Q63380); test: Functional uptake of radiolabeled NE into synaptosomes from rat hypothalamus; format: biochemical
T3 construct: from tissue; host or cells: synaptosomes from rat hypothalamus
T3 sequence (Q63380 1-617): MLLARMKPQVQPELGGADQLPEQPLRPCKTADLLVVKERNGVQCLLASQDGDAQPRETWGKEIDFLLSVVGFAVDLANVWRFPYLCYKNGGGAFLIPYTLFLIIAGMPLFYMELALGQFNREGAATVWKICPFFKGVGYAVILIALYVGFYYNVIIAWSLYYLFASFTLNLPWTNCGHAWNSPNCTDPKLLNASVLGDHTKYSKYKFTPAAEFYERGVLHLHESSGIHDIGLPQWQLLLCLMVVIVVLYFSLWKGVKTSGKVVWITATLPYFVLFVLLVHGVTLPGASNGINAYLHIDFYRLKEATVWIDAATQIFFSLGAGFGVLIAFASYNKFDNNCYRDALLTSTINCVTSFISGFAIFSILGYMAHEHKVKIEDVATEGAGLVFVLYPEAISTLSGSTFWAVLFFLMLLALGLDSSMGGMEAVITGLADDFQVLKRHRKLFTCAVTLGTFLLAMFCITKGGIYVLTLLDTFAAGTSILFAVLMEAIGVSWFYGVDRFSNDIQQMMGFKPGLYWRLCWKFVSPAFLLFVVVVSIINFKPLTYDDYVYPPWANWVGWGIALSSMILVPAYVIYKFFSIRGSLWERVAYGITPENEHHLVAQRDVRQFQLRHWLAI
Experimental: The 5-HT and NE assays were performed essentially as outlined in Perovic S. & Müller W. E. G., Arzneim.-Forsch.

[9] = biological target: T4, recombinant human Dopamine (DA) transporter (Homo sapiens, UniProt Q01959); test: Functional uptake of DA into cells expressing recombinant human transporters; format: cell-based; conditions: read-out: IC50 inhibition of functional uptake in human transporters, Dopamine (DA)
T4 construct: expressed in transfected cells
T4 sequence (Q01959 whole entry): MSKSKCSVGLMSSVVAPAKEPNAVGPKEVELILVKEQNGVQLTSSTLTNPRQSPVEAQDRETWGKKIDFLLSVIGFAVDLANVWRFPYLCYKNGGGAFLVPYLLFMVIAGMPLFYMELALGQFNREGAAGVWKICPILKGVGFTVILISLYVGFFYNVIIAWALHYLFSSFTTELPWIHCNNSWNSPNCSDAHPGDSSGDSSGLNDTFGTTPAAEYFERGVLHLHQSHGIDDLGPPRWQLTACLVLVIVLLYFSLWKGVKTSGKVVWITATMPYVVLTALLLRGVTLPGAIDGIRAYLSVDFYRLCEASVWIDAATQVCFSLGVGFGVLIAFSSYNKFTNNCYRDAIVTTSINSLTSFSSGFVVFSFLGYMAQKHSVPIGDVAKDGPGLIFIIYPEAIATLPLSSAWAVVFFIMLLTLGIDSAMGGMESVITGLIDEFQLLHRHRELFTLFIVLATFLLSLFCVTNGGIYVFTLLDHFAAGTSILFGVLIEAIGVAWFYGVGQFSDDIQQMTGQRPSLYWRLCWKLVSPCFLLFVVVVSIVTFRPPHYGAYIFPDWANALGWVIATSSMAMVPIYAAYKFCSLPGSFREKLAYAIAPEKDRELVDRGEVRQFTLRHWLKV

[10] = biological target: Dopamine (DA) uptake (Rattus norvegicus, UniProt P23977); test: biochemical
Chain of Dopamine (DA) uptake (P23977 whole entry): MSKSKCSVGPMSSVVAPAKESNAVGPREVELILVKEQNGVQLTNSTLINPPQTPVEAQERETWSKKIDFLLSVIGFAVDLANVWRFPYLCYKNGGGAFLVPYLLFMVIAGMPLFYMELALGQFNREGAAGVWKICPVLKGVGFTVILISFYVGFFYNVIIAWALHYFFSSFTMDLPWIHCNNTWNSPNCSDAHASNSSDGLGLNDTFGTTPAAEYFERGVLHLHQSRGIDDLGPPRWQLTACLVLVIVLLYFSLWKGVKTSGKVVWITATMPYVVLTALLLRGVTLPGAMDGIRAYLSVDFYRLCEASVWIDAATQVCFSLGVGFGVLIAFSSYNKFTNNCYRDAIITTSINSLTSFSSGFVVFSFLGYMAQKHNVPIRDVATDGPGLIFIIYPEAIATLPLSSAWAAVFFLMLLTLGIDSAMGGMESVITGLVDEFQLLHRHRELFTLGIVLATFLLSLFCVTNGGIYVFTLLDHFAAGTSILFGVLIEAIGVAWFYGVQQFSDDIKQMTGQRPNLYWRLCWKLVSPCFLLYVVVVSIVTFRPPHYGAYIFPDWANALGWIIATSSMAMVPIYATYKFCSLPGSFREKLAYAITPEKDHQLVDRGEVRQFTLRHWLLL

[11] = biological target: T5, recombinant human Norepinephrine (NE) transporter (Homo sapiens, UniProt P23975); test: Functional uptake of NE into cells expressing recombinant human transporters; format: cell-based; conditions: read-out: IC50 inhibition of functional uptake in human transporters, Norepinephrine (NE)
T5 construct: expressed in transfected cells
T5 sequence (P23975 whole entry): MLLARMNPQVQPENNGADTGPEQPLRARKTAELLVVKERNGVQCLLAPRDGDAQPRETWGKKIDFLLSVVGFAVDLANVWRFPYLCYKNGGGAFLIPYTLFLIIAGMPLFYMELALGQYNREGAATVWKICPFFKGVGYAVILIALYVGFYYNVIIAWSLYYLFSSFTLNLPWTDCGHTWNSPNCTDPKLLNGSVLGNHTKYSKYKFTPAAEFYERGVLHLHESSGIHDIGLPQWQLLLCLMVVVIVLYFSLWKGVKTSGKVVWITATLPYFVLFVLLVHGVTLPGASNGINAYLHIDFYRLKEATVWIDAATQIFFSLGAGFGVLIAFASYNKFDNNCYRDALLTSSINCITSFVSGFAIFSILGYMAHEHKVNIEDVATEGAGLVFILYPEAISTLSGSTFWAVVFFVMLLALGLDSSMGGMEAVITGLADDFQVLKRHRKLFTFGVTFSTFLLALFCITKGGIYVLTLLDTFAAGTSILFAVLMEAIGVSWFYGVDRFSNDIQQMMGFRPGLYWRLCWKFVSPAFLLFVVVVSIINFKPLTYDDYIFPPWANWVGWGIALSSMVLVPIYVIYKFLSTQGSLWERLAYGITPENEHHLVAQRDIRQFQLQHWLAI

[12] = tested on: Rat SNL Model; test: SNL model of neuropathic pain, mechanical hyperalgesia testing; format: in vivo
Experimental: (§1) The animals were anesthetized with isoflurane, the left L5 transverse process was removed, and the L5 and L6 spinal nerves were tightly ligated with 6-0 silk suture. The wound was then closed with internal sutures and external staples. Wound clips were removed 10-11 days following surgery.
Mechanical hyperalgesia testing: Baseline, post-injury and post-treatment values for […] mechanical sensitivity were evaluated using a Paw Pressure Analgesymeter (7200, Ugo Basile, Comerio, Italy) which generates a linearly increasing mechanical force. The mechanical nociceptive stimulus was applied to the plantar surface of the hind paws by a dome-shaped plastic tip placed between the 3rd and 4th metatarsus. […] Mechanical thresholds were defined as the force in grams at the first pain behavior, which includes paw withdrawal, struggle and/or vocalization. Paw pressure test was performed on each hind paw for each animal. The mean and standard error of the mean (SEM) were determined for each paw, in each treatment group. Mechanical hyperalgesia was evaluated 24 days post-surgery.
(§2) Ten rats were studied per group and the tests were performed blind. (1R,4S)-4-(3,4-dichlorophenyl)-1,2,3,4-tetrahydro-1-naphthalenamine (P) was evaluated at 3 doses (5, 10 and 15 mg/kg), administered orally and compared with a vehicle control group. Gabapentin (100 mg/kg) and duloxetine (30 mg/kg) administered orally under the same experimental conditions, were used as comparator substances. Mechanical allodynia and hyperalgesia testing were conducted at baseline and 1, 2 and 4 hours after test article administration.

[13] = tested on: Rat SNL Model; test: SNL model of neuropathic pain, mechanical allodynia testing; format: in vivo
Experimental: as §1
Animals were placed on a perforated metallic platform and allowed to acclimate to their surroundings for a minimum of 30 minutes before testing. The mean and standard error of the mean (SEM) were determined for each animal in each treatment group. Since this stimulus is normally not considered painful, significant injury-induced increases in responsiveness in this test are interpreted as a measure of mechanical allodynia. Mechanical allodynia was evaluated 14 days post-surgery.
as §2

[14] = biological target: B2 (Homo sapiens, UniProt P30411); test: In vitro radioligand binding assay, B2
Chain of B2 (P30411 whole entry): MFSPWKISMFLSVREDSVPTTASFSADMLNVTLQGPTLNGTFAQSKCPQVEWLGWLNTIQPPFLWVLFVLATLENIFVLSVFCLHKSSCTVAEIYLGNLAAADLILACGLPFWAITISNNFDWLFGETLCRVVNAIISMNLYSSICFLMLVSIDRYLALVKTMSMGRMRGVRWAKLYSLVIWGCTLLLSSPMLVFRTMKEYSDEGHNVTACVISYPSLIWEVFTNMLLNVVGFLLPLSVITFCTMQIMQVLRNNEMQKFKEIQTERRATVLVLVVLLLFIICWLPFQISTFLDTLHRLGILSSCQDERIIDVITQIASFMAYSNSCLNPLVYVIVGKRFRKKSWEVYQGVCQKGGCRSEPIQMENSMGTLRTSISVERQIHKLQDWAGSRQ

[15] = biological target: T6, 5-HT1A (Homo sapiens, UniProt P08908); test: In vitro radioligand binding assay, 5-HT1A
T6 sequence (P08908 1-422): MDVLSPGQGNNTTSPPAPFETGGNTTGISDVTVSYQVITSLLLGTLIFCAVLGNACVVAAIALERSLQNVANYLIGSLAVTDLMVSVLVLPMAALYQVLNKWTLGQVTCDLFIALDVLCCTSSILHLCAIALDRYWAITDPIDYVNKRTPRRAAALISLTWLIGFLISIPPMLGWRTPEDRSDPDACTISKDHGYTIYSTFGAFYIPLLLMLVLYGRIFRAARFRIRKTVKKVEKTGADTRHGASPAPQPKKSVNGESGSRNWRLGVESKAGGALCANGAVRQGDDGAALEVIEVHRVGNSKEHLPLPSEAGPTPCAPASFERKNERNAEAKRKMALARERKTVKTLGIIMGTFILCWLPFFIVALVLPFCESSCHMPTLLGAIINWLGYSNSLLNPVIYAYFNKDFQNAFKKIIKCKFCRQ

[16] = biological target: H2 (Homo sapiens, UniProt P25021); test: In vitro radioligand binding assay, H2
Chain of H2 (P25021 whole entry): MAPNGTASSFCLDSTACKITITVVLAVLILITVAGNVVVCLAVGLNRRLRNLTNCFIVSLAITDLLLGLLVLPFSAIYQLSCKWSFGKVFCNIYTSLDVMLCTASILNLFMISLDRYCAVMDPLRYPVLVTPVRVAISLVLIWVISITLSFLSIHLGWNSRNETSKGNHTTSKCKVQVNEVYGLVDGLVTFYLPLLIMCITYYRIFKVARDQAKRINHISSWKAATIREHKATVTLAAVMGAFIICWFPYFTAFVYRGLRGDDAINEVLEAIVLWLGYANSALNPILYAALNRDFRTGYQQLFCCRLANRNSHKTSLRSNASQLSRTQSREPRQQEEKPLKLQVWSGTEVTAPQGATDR

[17] = 128 mg/kg p.o. 60 min before the test
[18] = 30 mg/kg p.o. 60 min before the test

T1 sequence (H0W1Z3 1-590): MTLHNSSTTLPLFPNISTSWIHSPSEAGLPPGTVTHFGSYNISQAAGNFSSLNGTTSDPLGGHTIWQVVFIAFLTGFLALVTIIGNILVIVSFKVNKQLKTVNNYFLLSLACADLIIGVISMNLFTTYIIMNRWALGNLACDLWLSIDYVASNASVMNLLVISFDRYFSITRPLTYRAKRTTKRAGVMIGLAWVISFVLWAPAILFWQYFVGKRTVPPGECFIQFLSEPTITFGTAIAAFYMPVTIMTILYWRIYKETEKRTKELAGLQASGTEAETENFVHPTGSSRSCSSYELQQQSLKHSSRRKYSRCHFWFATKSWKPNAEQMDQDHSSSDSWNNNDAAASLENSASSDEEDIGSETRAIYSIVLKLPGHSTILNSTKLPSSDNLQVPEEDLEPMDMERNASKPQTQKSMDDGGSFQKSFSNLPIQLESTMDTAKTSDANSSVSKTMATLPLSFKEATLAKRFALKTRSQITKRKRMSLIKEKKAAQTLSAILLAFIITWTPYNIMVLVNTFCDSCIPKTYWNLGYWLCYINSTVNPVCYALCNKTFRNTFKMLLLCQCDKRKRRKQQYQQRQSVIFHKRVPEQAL

## C[N+]1(C)CCC(OC(=O)C(c2ccccc2)c2ccccc2)CC1.[I-] [Compound 4-DAMP, 4-DAMP, reference compound]
[1]
  pA2: pA2 = 9.2
[1]; read-out: IC50 for inhibition of carbachol-induced contraction of the Guinea Pig ileum
  IC50: 33 nM

## CNCCCN1c2ccccc2CCc2ccccc21 [Desipramine]
[2]
  Ki: 310 nM
[3]; read-out: Ki, M5
  Ki: 0.47 µM
[4]
  Ki: 0.91 µM
[5]
  Ki: 2700 nM

## CN1CC[C@]23c4c5ccc(O)c4O[C@H]2[C@@H](O)C=C[C@H]3[C@H]1C5 [Morphine, reference compound]
[6]; [17]
  NUMBER OF FLINCHES (20 to 35 min after formalin), mean ± s.e.m.: 0.0 ± 0.0
  NUMBER OF FLINCHES, % change from control: −100%
[7]; 100 mg/kg SC
  Number of Flinches, Acute Phase (Mean ± SEM): 36 ± 9
  Number of Flinches, Late Phase (Mean ± SEM): 32 ± 13

## N[C@H]1CC[C@H](c2ccc(Cl)c(Cl)c2)c2ccccc21 [Compound Q, (1S,4R)-trans 4-(3,4-dichlorophenyl)-1,2,3,4-tetrahydro-1-napthalenamine]
[8]
  IC50: 35 nM
[9]
  IC50: 14.4 nM
[10]
  IC50: 19 nM
[11]
  IC50: 16.5 nM

## NCC1(CC(=O)O)CCCCC1 [Gabapentin, reference compound]
[12]; 100 mg/kg PO, 0 h (Baseline)
  Mechanical Hyperalgesia, Paw Pressure Threshold (Mean ± SEM): 135 ± 20 g
[12]; 100 mg/kg PO, 1 h
  Mechanical Hyperalgesia, Paw Pressure Threshold (Mean ± SEM): 219 ± 32 g
[12]; 100 mg/kg PO, 2 h
  Mechanical Hyperalgesia, Paw Pressure Threshold (Mean ± SEM): 236 ± 29 g
[12]; 100 mg/kg PO, 4 h
  Mechanical Hyperalgesia, Paw Pressure Threshold (Mean ± SEM): 255 ± 29 g
[13]; 100 mg/kg PO, 0 h (Baseline)
  Mechanical Allodynia, Paw Withdrawal Threshold (Mean ± SEM): 2.7 ± 0.1 g
[13]; 100 mg/kg PO, 1 h
  Mechanical Allodynia, Paw Withdrawal Threshold (Mean ± SEM): 6.6 ± 0.4 g
[13]; 100 mg/kg PO, 2 h
  Mechanical Allodynia, Paw Withdrawal Threshold (Mean ± SEM): 9.8 ± 0.5 g
[13]; 100 mg/kg PO, 4 h
  Mechanical Allodynia, Paw Withdrawal Threshold (Mean ± SEM): 6.2 ± 0.4 g

## CC(NC(C)(C)C)C(=O)c1cccc(Cl)c1 (stereo not shown) [Bupropion, reference compound]
[8]
  IC50: 611 nM
[10]
  IC50: 294 nM

## CNCC[C@H](Oc1cccc2ccccc12)c1cccs1 [Duloxetine, reference compound]
[6]; [18]
  NUMBER OF FLINCHES (20 to 35 min after formalin), mean ± s.e.m.: 71.4 ± 17.2NS
  NUMBER OF FLINCHES, % change from control: −20%
[7]; 30 mg/kg PO
  Number of Flinches, Acute Phase (Mean ± SEM): 168 ± 24
  Number of Flinches, Late Phase (Mean ± SEM): 803 ± 112
[12]; 30 mg/kg PO, 0 h (Baseline)
  Mechanical Hyperalgesia, Paw Pressure Threshold (Mean ± SEM): 153 ± 9 g
[12]; 30 mg/kg PO, 1 h
  Mechanical Hyperalgesia, Paw Pressure Threshold (Mean ± SEM): 306 ± 30 g
[12]; 30 mg/kg PO, 2 h
  Mechanical Hyperalgesia, Paw Pressure Threshold (Mean ± SEM): 345 ± 22 g
[12]; 30 mg/kg PO, 4 h
  Mechanical Hyperalgesia, Paw Pressure Threshold (Mean ± SEM): 330 ± 25 g
[13]; 30 mg/kg PO, 0 h (Baseline)
  Mechanical Allodynia, Paw Withdrawal Threshold (Mean ± SEM): 2.6 ± 0.2 g
[13]; 30 mg/kg PO, 1 h
  Mechanical Allodynia, Paw Withdrawal Threshold (Mean ± SEM): 7.0 ± 0.5 g
[13]; 30 mg/kg PO, 2 h
  Mechanical Allodynia, Paw Withdrawal Threshold (Mean ± SEM): 7.9 ± 0.6 g
[13]; 30 mg/kg PO, 4 h
  Mechanical Allodynia, Paw Withdrawal Threshold (Mean ± SEM): 8.1 ± 0.6 g

## CN(C)CCCC1(c2ccc(F)cc2)OCc2cc(C#N)ccc21 (stereo not shown) [Citalopram]
[14]
  Ki: > 100 µM
[8]
  IC50: 7900 nM
[3]; read-out: Ki, M5
  Ki: 29 µM
[15]
  Ki: 15 µM

## COc1ccc(C(CN(C)C)C2(O)CCCCC2)cc1 (stereo not shown) [Venlafaxine]
[2]
  Ki: 4800 nM
[16]
  Ki: 89 µM
[3]
  Ki: > 100 µM
[4]
  Ki: 12 µM

## N[C@@H]1CC[C@@H](c2ccc(Cl)c(Cl)c2)c2ccccc21 (racemic) [1:1 mixture of Compounds P & Q, trans-4-(3,4-dichlorophenyl)-1,2,3,4-tetrahydro-1-napthalenamine]
[8]
  IC50: 8.8 nM
[10]
  IC50: 7.1 nM

Source: patent publication US20070282007A1, “TREATMENT OF PAIN DISORDERS WITH trans 4-(3,4-DICHLOROPHENYL)-1,2,3,4-TETRAHYDRO-1-NAPHTHALENAMINE AND ITS FORMAMIDE” (SEPRACOR INC., priority 2006, published 2007)
